Each structure is given as a SMILES string. pIC50: −log10 of the molar value. Read-outs that look alike come from different tables or passages of the source. Numbered stars: 1 amine (or outer) side, 2 acyl side, 3 side chain; on linkers, the order of the positions; unused ones are H or OH. Square brackets hold non-standard residues; d marks the D form. Peptide text beside a SMILES is read from it. * marks the point of attachment. ξ: configuration not given here. Gly(1-amidinopiperidin-4-yl) = N=C(N)N1CCC([C@H](N)C(=O)O)CC1; X1 = CC(C)c1oc([C@H](CO)N[*:1])nc1C(=O)[*:2]; Pro(3R-Ph) = O=C(O)[C@H]1NCC[C@@H]1c1ccccc1; Met(O) = CS(=O)CC[C@H](N)C(=O)O; Tic = O=C(O)[C@@H]1Cc2ccccc2CN1; Cha = N[C@@H](CC1CCCCC1)C(=O)O; NHPhenethyl = c1ccc(CCN*)cc1; ξDisc = O=C(O)C1NCc2ccccc21; Nle = CCCC[C@H](N)C(=O)O; NHBn = c1ccc(CN*)cc1

The target of data set [1] is DR4Dw4 (DRA1*0101 DRB1*0401) (Homo sapiens, UniProt P01903+P01911, A100K/A169T/F76Y/I96L/K127E/L162R/M171V/N62H/P40V/Q125Y/R42H/S133A/S149N/S66Y/V115G/V209L/W38E). Kind of data set: Competitive binding to MHC-II protein DR4Dw4. In a few lines:
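Each MHC-II allele incubated with compound 16 hours at room temperature in duplicate; controls lacked compound, or both compound and MHC-II. Complexes captured 2 h at 4 °C, bound biotinylated peptide detected via europium-streptavidin and DELFIA enhancement, time-resolved fluorescence read at ex 340/em 613 (615) nm.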

In data set [2] the target is T1, Priess (DR4Dw4: DRA1*0101 DRB1*0401) cells (Homo sapiens, UniProt P01903+P01911, A100K/A169T/F76Y/I96L/K127E/L162R/M171V/N62H/P40V/Q125Y/R42H/S133A/S149N/S66Y/V115G/V209L/W38E).
T1 construct: MHC II Proteins Expressed on PRIESS and LG2 Cells; endogenous in cells; host or cells: Priess cells
Kind of data set: Competitive binding to MHC II proteins expressed on Priess cells. The format is cell-based. In a few lines:
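LG2 or Priess cells incubated 4 h at 37° C, 6% CO2 in 1% FCS with 10-fold compound dilutions (series 16 nM-1615 μM) and biotinylated-detectable indicator peptide (16 μM solution added). Lysates captured 2 h at 4° C; bound peptide detected via europium-streptavidin time-resolved fluorescence (ex 340, em 613 nm).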

Data set [3] has as its target Cathepsin D (EC 3.4.23.5 from bovine spleen) (Bos taurus, UniProt P80209).
Data set [4] concerns T-cell proliferation, lymph node cells of chimeric 0401-IE transgenic mice. As to conditions: for Immunsupressive assays DR4-LN (Max) % Inhibition: maximal inhibition; for immunosuppressive properties as measured by a T-cell activation assay: dose-response curves; for pIC50: read-out: Immunsupressive assays DR4-LN (IC50); for Immunsupressive assays DR4-LN (Max) % Inhibition / pIC50: DR4-LN. In a few lines:
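Antigen-primed lymph node cells (1.5×10^5/well) from mice lacking murine class II and carrying a chimeric human RA-associated class II transgene, cultured 3 days with ovalbumin at half-maximal dose plus compound (~0.1–200 uM) in serum-free HL-1. Proliferation read by 3H-thymidine incorporation over the final 16 h.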

A word on the pIC50: it is the negative decadic logarithm of the IC50, by convention in mol/L. Consider `CCCC[C@H](NC(=O)[C@@H]1Cc2ccccc2CN1C(=O)[C@@H](NC(=O)[C@H](CC1CCCCC1)NC(C)=O)C1CCN(C(=N)N)CC1)C(=O)NCCc1ccccc1` [Compound P69, Ac-Cha-Gpg-Tic-Nle-N(H)CH2CH2Ph] (Ac-[Cha][Gly(1-amidinopiperidin-4-yl)][Tic][Nle]-NHPhenethyl), for which the pIC50 is 5.44 in data set [1], 4.96 in data set [2] and 4.72 in data set [4]. Besides, the “Stability (Arbitrary units) Cath D 4 h” value in data set [3] is listed as 100 Arbitrary units. The “Immunsupressive assays DR4-LN (Max) % Inhibition” value in data set [4] was determined as 101%. Further, the “immunosuppressive properties as measured by a T-cell activation assay” value in data set [4] is “immunosuppressive properties”.

As for `CCCC[C@H](NC(=O)[C@@H]1Cc2ccccc2CN1C(=O)[C@@H](NC(=O)[C@H](CC1CCCCC1)NC(C)=O)C1CCN(C(=N)N)CC1)C(=O)NCc1ccccc1` [Compound P68, Ac-Cha-Gpg-Tic-Nle-N(H)Bn] (Ac-[Cha][Gly(1-amidinopiperidin-4-yl)][Tic][Nle]-NHBn), the negative logarithm of the IC50 (pIC50) in data set [1] is 5.68; in data set [2] it was 4.92; in data set [4], 4.74. For the same compound, in data set [3], the “Stability (Arbitrary units) Cath D 4 h” value amounted to 105 Arbitrary units. For the same compound, the “Immunsupressive assays DR4-LN (Max) % Inhibition” value in data set [4] turned out to be 102%.

As to `CSCC[C@H](NC(=O)C1c2ccccc2CN1C(=O)[C@@H](NC(=O)[C@H](CC1CCCCC1)NC(C)=O)C1CCN(C(=N)N)CC1)C(=O)N1CC[C@H](c2ccccc2)[C@H]1C(=O)N[C@@H](CO)c1nc(C(=O)N(C)C)c(C(C)C)o1` (stereo partly drawn) [Compound P41-1, Ac-Cha-Gpg-Disc-Met-βPhPro-[S(oxaz)L]-NMe2] (Ac-[Cha][Gly(1-amidinopiperidin-4-yl)][ξDisc]M[Pro(3R-Ph)][X1]-NMe2), the pIC50 was 6.70 in data set [1], 5.43 in data set [2] and 4.31 in data set [4]. In data set [3], the “Stability (Arbitrary units) Cath D 4 h” value was 103 Arbitrary units. Moreover, the “Immunsupressive assays DR4-LN (Max) % Inhibition” value in data set [4] came out at 96%.

Regarding `CSCC[C@H](NC(=O)C1c2ccccc2CN1C(=O)[C@H](CCCNC(=N)N)NC(=O)[C@H](CC1CCCCC1)NC(C)=O)C(N)=O` (stereo partly drawn) [Compound P12-1, Ac-Cha-Arg-Disc-Met-NH2] (Ac-[Cha]R[ξDisc]M-NH2), the pIC50 in data set [1] was 6.43; in data set [2], 5.17; in data set [4], less than 3.70. Besides, the “Stability (Arbitrary units) Cath D 4 h” value in data set [3] is on record as 103 Arbitrary units. For the same compound, the “Immunsupressive assays DR4-LN (Max) % Inhibition” value in data set [4] is listed as 5%.

A word on the IC50: it is the concentration needed to halve the response being measured. With `CCCC[C@H](NC(=O)C1c2ccccc2CN1C(=O)[C@@H](NC(=O)[C@H](CC1CCCCC1)NC(C)=O)C1CCN(C(=N)N)CC1)C(=O)N(C)Cc1ccccc1` (single isomer, unassigned) [Compound P76-1, Ac-Cha-Gpg-Disc-Nle-N(Me)Bn], the half-maximal inhibitory concentration (IC50) in data set [1] (read-out: Protein binding IC50 (nM) 0401, 0401) was found to be 2300 nM. Further, the IC50 in data set [2] (read-out: Cell binding IC50 (uM) Priess (0401), Priess (0401)) amounted to 9.8 µM. Also, the “Stability (Arbitrary units) Cath D 4 h” value in data set [3] turned out to be 104 Arbitrary units. In data set [4], the “Immunsupressive assays DR4-LN (Max) % Inhibition” value came to 103% and the pIC50 was 4.47.

With `CC(=O)N[C@@H](CC1CCCCC1)C(=O)N[C@H](C(=O)N1Cc2ccccc2C[C@H]1C(=O)N[C@@H](CC[S+](C)[O-])C(=O)N1CC[C@H](c2ccccc2)[C@H]1C(=O)N[C@@H](CO)c1nc(C(=O)N(C)C)c(C(C)C)o1)C1CCN(C(=N)N)CC1` (stereo partly drawn) [Compound P47, Ac-Cha-Gpg-Tic-Met(O)-βPhPro-[S(oxaz)L]-NMe2] (Ac-[Cha][Gly(1-amidinopiperidin-4-yl)][Tic][Met(O)][Pro(3R-Ph)][X1]-NMe2), the pIC50 in data set [1] is 6.74; in data set [2], 5.16; in data set [4], 4.11. Besides, the “Stability (Arbitrary units) Cath D 4 h” value in data set [3] is reported as 99 Arbitrary units. The “Immunsupressive assays DR4-LN (Max) % Inhibition” value in data set [4] is listed as 77%.

Take `CCCC[C@H](NC(=O)[C@@H]1Cc2ccccc2CN1C(=O)[C@@H](NC(=O)[C@H](CC1CCCCC1)NC(C)=O)C1CCN(C(=N)N)CC1)C(=O)N1CC[C@H](c2ccccc2)[C@H]1C(=O)N[C@@H](CO)c1nc(C(=O)N(C)C)c(C(C)C)o1` [Compound P53, Ac-Cha-Gpg-Tic-Nle-βPhPro-[S(oxaz)L]-NMe2] (Ac-[Cha][Gly(1-amidinopiperidin-4-yl)][Tic][Nle][Pro(3R-Ph)][X1]-NMe2): the pIC50 in data set [1] was 6.39; in data set [2], 5.52; in data set [4] it was 4.40. In addition, the “Stability (Arbitrary units) Cath D 4 h” value in data set [3] came out at 99 Arbitrary units. Further, the “Immunsupressive assays DR4-LN (Max) % Inhibition” value in data set [4] stood at 100%. For the same compound, in data set [4] (dose-response curve, compared to the Arg-containing peptide), the “immunosuppressive properties as measured by a T-cell activation assay, versus Arg equivalent” value is recorded as “improved immunosuppressive properties”. The “immunosuppressive properties as measured by a T-cell activation assay” value in data set [4] was “immunosuppressive properties”.

(Values after patent US7629318B2, “Immunosuppressant compounds, methods and uses related thereto” (priority 2002, dated 2009).)
